Values belong to the compound of their own block, whether it stands above or below them.
Assays:
Format in all cases: biochemical
full-length human PDE4D5 = target: T1, full-length human PDE4D5 (Homo sapiens, UniProt Q08499); experiment: PDE4D5 long form enzyme activation radio-assay (Experiment 1, Protocol A or B); details: for activation at 30 µM: mean % increase in counts over basal activity
T1 construct: stably expressed the full-length human PDE4D5, PDE4A4 and PDE4B1 long isoforms; made in house; cytosol fraction of cell lysate
T1 sequence (Q08499 1-745 isoform Q08499-6): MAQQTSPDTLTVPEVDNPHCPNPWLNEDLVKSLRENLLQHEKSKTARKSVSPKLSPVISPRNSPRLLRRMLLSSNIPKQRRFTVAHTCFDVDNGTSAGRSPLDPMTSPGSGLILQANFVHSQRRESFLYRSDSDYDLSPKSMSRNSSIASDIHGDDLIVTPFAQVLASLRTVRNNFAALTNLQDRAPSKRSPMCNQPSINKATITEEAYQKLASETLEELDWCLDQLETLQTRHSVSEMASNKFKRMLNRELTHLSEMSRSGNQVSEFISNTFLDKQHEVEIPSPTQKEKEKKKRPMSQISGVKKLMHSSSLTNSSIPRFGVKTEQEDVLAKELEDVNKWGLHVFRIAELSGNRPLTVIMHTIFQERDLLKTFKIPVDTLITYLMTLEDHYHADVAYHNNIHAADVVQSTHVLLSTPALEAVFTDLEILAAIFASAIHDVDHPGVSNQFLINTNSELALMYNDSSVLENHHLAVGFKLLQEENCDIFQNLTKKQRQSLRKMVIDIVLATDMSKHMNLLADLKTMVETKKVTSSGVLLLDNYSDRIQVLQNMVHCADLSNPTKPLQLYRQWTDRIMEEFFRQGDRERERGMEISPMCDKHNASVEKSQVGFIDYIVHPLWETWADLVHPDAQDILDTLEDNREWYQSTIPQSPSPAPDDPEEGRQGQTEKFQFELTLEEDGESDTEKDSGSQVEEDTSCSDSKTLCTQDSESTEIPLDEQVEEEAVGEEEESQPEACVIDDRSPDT
Excerpt: (§1) Experiment 1: Identification of PDE4 Long Form Activators of the Present Invention Using Full-Length Human PDE4 Isoforms PDE4D5, PDE4A4, PDE4B1 and PDE4B2
(§2) HEK 293 cells were transfected with pDEST™ PDE4 expression vectors using Lipofectamine LTX/Plus reagent (Invitrogen) as outlined by the manufacturer and clonal isolates expanded to obtain cell lines that stably expressed the full-length human PDE4D5, PDE4A4 and PDE4B1 long isoforms and the full length human PDE4B2 short isoform. These were called the HEK-PDE4D5, HEK-PDE4A4, HEK-PDE4B1 and HEK-PDE4B2 cell lines, respectively.
(§3) HEK-PDE4D5 cells were seeded out in 100 mm plates and incubated at 37° C. in an atmosphere of 5% CO2, 95% air. Cell lysates were prepared using KHEM buffer [50 mM KCl, 10 mM EGTA, 50 mM HEPES (pH 7.2), 1.92 mM MgCl2].
(§4) To prepare the cell lysates, the 100 mm plates containing the cells were placed on ice and washed with ice-cold PBS (phosphate buffered saline, pH 7.4). KHEM buffer (500 μl) was added to the cells. Cells were then scraped off the plate and triturated using a needle (BD Microlance™ 0.8, 40 mm). The lysed cells were then centrifuged at 2000 rpm for 10 minutes to remove cell debris and the supernatant (cell lysate containing recombinant PDE4D5) was transferred to a fresh tube and kept on ice.
(§5) The cell lysate containing recombinant PDE4D5 was transferred into a centrifuge tube and placed into an ultracentrifuge (BECKMAN COULTER) and spun at high speed (100,000 g) for 30 minutes at 4° C. The cytosol fraction was then collected and its protein amount determined using a BCA protein assay.
(§6) PDE assays were performed using a final concentration of 10 mM Tris/5 mM MgCl2 and 1 μM [^3H]-cAMP (Perkin Elmer) plus PDE4D5 cell lysate cytosol fraction, containing over-expressed PDE4D5, with and without test compound. Incubations were performed at 30° C. for 5 minutes. The samples were then placed in a boiling water bath for 2 minutes to denature the PDE enzyme, and returned to ice. Samples were allowed to cool for 10 min after which snake venom 5′-nucleotidase (25 μl, 1 mg/ml; Sigma) was added. The tubes were vortexed and incubated in a water bath at 30° C. for 10 minutes, to attain conversion of [^3H]-5′-AMP to [^3H]-adenosine, and then placed on ice. Dowex ion exchange resin (Sigma) prepared as a 1:1 Dowex: water stock was thoroughly re-suspended and diluted 2:1 with ethanol. The resulting Dowex suspension (0.4 ml) was added to each tube. Tubes were vortexed to mix and then incubated on ice for at least 15 minutes before a final vortex. The Dowex resin was pelleted by centrifugation at 13,000 g at 4° C. for 3 minutes and 150 μl of the supernatant was removed to an Eppendorf tube containing 1 ml of ScintiSafe3 scintillation fluid (Fisher). Tubes were vortexed thoroughly to mix and the recovered [^3H]-adenosine was quantified by measuring counts over 1 minute in a scintillation counter.
(§7) The % increase in counts in the presence of test compound at a particular concentration indicates the % increase in enzyme activity at that concentration.
(§8) PDE assays were performed in thin walled V-bottomed 96-well plates. The assays were performed at a final concentration of 10 mM Tris/5 mM MgCl2 plus PDE4D5 cell lysate cytosol fraction, containing over-expressed PDE4D5, with and without test compound. The lysate/compound mix were incubated together for 15 min at room temperature on an orbital shaker prior to addition of [^3H] cAMP (final concentration 1 μM [^3H] cAMP; Perkin Elmer) to a final volume of 50 μl per reaction. The reactions were then incubated for 10 minutes at 30° C., terminated by heating for 2 min at 95° C. and allowed to cool. Snake venom (12.5 μl of 1 mg/ml; Crotalus atrox, Sigma) was then added and the plates were agitated and incubated for a further 15 minutes at 30° C. […]

full-length human PDE4B2 = target: T2, full-length human PDE4B2 (Homo sapiens, UniProt Q07343); experiment: PDE4B2 short form enzyme activation radio-assay (Experiment 1, Protocol A or B); details: for activation at 30 µM: mean % increase in counts over basal activity
T2 construct: and the full length human PDE4B2 short isoform; made in house; cytosol fraction of cell lysate
T2 sequence (Q07343 1-564 isoform Q07343-2): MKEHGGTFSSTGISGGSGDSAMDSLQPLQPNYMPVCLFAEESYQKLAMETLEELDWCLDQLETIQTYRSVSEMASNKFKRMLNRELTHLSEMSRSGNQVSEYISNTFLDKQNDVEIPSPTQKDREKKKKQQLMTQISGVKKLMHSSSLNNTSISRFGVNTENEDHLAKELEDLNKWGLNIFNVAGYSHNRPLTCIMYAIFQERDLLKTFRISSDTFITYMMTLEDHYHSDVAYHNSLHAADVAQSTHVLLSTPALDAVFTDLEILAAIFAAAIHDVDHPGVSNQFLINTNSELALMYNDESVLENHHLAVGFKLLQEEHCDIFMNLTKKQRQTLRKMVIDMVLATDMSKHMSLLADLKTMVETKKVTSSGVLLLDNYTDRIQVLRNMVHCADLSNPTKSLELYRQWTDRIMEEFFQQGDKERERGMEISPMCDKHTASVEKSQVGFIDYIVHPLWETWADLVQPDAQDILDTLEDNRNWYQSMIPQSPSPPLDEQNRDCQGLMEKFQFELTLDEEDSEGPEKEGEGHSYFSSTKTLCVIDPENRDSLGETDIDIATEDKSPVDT
Excerpt: as §1, §2, §3, §4, §5, §6, §7, §8

full-length human PDE4B1 = target: T3, full-length human PDE4B1 (Homo sapiens, UniProt Q07343); experiment: PDE4B1 long form enzyme activation radio-assay (Experiment 1, Protocol A or B); details: mean % increase in counts over basal activity
T3 construct: stably expressed the full-length human PDE4D5, PDE4A4 and PDE4B1 long isoforms; made in house; cytosol fraction of cell lysate
T3 sequence (Q07343 whole entry, canonical isoform): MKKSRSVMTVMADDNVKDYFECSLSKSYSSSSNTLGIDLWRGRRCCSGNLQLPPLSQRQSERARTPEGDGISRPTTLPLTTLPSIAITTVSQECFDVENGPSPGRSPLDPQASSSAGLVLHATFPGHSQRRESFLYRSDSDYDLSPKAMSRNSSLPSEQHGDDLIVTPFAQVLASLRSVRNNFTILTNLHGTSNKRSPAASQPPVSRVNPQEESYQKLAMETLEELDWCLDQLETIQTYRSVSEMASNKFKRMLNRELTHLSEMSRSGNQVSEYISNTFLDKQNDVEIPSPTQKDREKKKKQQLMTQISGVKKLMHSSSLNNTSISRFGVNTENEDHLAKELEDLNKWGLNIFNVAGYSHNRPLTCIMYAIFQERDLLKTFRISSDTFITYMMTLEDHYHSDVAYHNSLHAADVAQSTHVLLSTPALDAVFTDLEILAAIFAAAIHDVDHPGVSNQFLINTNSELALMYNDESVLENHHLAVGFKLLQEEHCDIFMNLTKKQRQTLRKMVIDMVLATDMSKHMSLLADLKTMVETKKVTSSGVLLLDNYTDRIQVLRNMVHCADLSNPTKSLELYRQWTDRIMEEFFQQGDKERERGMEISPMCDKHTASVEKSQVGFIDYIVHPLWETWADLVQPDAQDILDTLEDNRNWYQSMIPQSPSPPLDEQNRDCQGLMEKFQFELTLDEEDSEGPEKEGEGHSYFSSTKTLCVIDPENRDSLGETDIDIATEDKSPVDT
Excerpt: as §1, §2, §3, §4, §5, §6, §7, §8

SMILES: CCOC(=O)c1nc(-c2ccc(Cl)c(F)c2)nn1CC(=O)NCc1ccccc1 [Example 2, Ethyl 1-[(benzylcarbamoyl)methyl]-3-(4-chloro-3-fluorophenyl)-1H-1,2,4-triazole-5-carboxylate]
activation at 30 µM (full-length human PDE4D5; Protocol A): 92.9% | activation of PDE4 long form PDE4D5 (in words) (full-length human PDE4D5; Protocol A, FIG. 1(a)): dose dependent activation | activation at 30 µM (full-length human PDE4B2; Protocol A): -2.5% | activation of PDE4 short form PDE4B2 (in words) (full-length human PDE4B2; Protocol A, FIG. 1(b)): lack of activation

SMILES: COC(=O)c1nc(-c2ccc(Cl)c(F)c2)nn1CC(=O)NCc1ccccc1 [Example 3, Methyl 1-[(benzylcarbamoyl)methyl]-3-(4-chloro-3-fluorophenyl)-1H-1,2,4-triazole-5-carboxylate]
activation at 30 µM (full-length human PDE4D5; Protocol A): 62.6% | activation at 30 µM (full-length human PDE4B2; Protocol A): -0.9%

SMILES: CCOC(=O)c1nc(-c2ccc(Cl)c(F)c2)nn1CC(=O)NCc1cccc(F)c1 [Example 4, Ethyl 3-(4-chloro-3-fluorophenyl)-1-{[(3-fluorobenzyl)carbamoyl]methyl}-1H-1,2,4-triazole-5-carboxylate]
activation at 30 µM (full-length human PDE4B1; Protocol B): 80.5%

SMILES: CCOC(=O)c1nc(-c2ccc(Cl)c(F)c2)nn1CC(=O)NCc1cccc(OC)c1 [Example 5, Ethyl 3-(4-chloro-3-fluorophenyl)-1-{[(3-methoxybenzyl)carbamoyl]methyl}-1H-1,2,4-triazole-5-carboxylate]
activation at 30 µM (full-length human PDE4B1; Protocol B): 44%

SMILES: NC(=O)c1nc(-c2ccc(Cl)c(F)c2)nn1CC(=O)NCc1cccc(F)c1 [Example 8, 3-(4-chloro-3-fluorophenyl)-1-{[(3-fluorobenzyl)carbamoyl]methyl}-1H-1,2,4-triazole-5-carboxamide]
activation at 30 µM (full-length human PDE4B1; Protocol A): 50.9%

SMILES: COc1cccc(CNC(=O)Cn2nc(-c3ccc(Cl)c(F)c3)nc2C(N)=O)c1 [Example 9, 3-(4-chloro-3-fluorophenyl)-1-{[(3-methoxybenzyl)carbamoyl]methyl}-1H-1,2,4-triazole-5-carboxamide]
activation at 30 µM (full-length human PDE4B1; Protocol A): 58.5%

SMILES: CNC(=O)c1nc(-c2ccc(Cl)c(F)c2)nn1CC(=O)NCc1cccc(F)c1 [Example 10, 3-(4-chloro-3-fluorophenyl)-1-{[(3-fluorobenzyl)carbamoyl]methyl}-N-methyl-1H-1,2,4-triazole-5-carboxamide]
activation at 30 µM (full-length human PDE4B1; Protocol B): 85.1% | activation at 30 µM (full-length human PDE4B2; Protocol B): 23.3%

SMILES: CN(C)C(=O)c1nc(-c2ccc(Cl)c(F)c2)nn1CC(=O)NCc1cccc(F)c1 [Example 11, 3-(4-chloro-3-fluorophenyl)-1-{[(3-fluorobenzyl)carbamoyl]methyl}-N,N-dimethyl-1H-1,2,4-triazole-5-carboxamide]
activation at 30 µM (full-length human PDE4B1; Protocol A): 84.1%

SMILES: CNC(=O)c1nc(-c2ccc(Cl)c(F)c2)nn1CC(=O)NCc1cccc(OC)c1 [Example 12, 3-(4-chloro-3-fluorophenyl)-1-{[(3-methoxybenzyl)carbamoyl]methyl}-N-methyl-1H-1,2,4-triazole-5-carboxamide]
activation at 30 µM (full-length human PDE4B1; Protocol B): 89.2%

SMILES: COc1cccc(CNC(=O)Cn2nc(-c3ccc(Cl)c(F)c3)nc2C#N)c1 [Example 16, 2-[3-(4-chloro-3-fluorophenyl)-5-cyano-1H-1,2,4-triazol-1-yl]-N-(3-methoxybenzyl)acetamide]
activation at 30 µM (full-length human PDE4B1; Protocol B): 52.2%

SMILES: COc1cccc(CNC(=O)Cn2nc(-c3ccc(Cl)c(F)c3)nc2C(=O)NC(C)C)c1 [Example 17, 3-(4-chloro-3-fluorophenyl)-1-{[(3-methoxybenzyl)carbamoyl]methyl}-N-isopropyl-1H-1,2,4-triazole-5-carboxamide]
activation at 30 µM (full-length human PDE4D5; Protocol B): 81.1%

SMILES: COc1cccc(CNC(=O)Cn2nc(-c3ccc(Cl)c(F)c3)nc2C(=O)N(C)C)c1 [Example 18, 3-(4-chloro-3-fluorophenyl)-1-{[(3-methoxybenzyl)carbamoyl]methyl}-N,N-dimethyl-1H-1,2,4-triazole-5-carboxamide]
activation at 30 µM (full-length human PDE4D5; Protocol B): 83.9%

SMILES: CCNC(=O)c1nc(-c2ccc(Cl)c(F)c2)nn1CC(=O)NCc1cccc(F)c1 [Example 19, 3-(4-chloro-3-fluorophenyl)-1-{[(3-fluorobenzyl)carbamoyl]methyl}-N-ethyl-1H-1,2,4-triazole-5-carboxamide]
activation at 30 µM (full-length human PDE4D5; Protocol B): 84.1%

The remaining lines, values ahead:

activation at 30 µM (full-length human PDE4D5; Protocol B): 63.3% | activation at 30 µM (full-length human PDE4B2; Protocol B): -22.4%
SMILES: COCCNC(=O)c1nc(-c2ccc(Cl)c(F)c2)nn1CC(=O)NCc1cccc(F)c1 [Example 20, 3-(4-chloro-3-fluorophenyl)-1-{[(3-fluorobenzyl)carbamoyl]methyl}-N-(2-methoxyethyl)-1H-1,2,4-triazole-5-carboxamide]

activation at 30 µM (full-length human PDE4D5; Protocol B): 105%
SMILES: COCCNC(=O)c1nc(-c2ccc(Cl)c(F)c2)nn1CC(=O)NCc1cccc(OC)c1 [Example 21, 3-(4-chloro-3-fluorophenyl)-1-{[(3-methoxybenzyl)carbamoyl]methyl}-N-(2-methoxyethyl)-1H-1,2,4-triazole-5-carboxamide]

activation at 30 µM (full-length human PDE4D5; Protocol B): 53.1%
SMILES: O=C(Cn1nc(-c2ccc(Cl)c(F)c2)nc1C(=O)NC1CCCCC1)NCc1cccc(F)c1 [Example 22, 3-(4-chloro-3-fluorophenyl)-1-{[(3-fluorobenzyl)carbamoyl]methyl}-N-cyclohexyl-1H-1,2,4-triazole-5-carboxamide]

activation at 30 µM (full-length human PDE4D5; Protocol B): 93.7%
SMILES: CCOC(=O)c1cc(-c2ccc(Cl)cc2)nn1CC(=O)NCc1cccc(F)c1 [Example 23, Ethyl 3-(4-chlorophenyl)-1-{[(3-fluorobenzyl)carbamoyl]methyl}-1H-pyrazole-5-carboxylate]

activation at 30 µM (full-length human PDE4D5; Protocol B): 87.4%
SMILES: COC(=O)c1cc(-c2cccc(OC)c2)nn1CC(=O)NCc1cccc(F)c1 [Example 24, Methyl 1-{[(3-fluorobenzyl)carbamoyl]methyl}-3-(3-methoxyphenyl)-1H-pyrazole-5-carboxylate]

activation at 30 µM (full-length human PDE4D5; Protocol B): 39.5% | activation at 30 µM (full-length human PDE4B2; Protocol B): 21%
SMILES: CNC(=O)c1cc(-c2ccc(Cl)c(F)c2)nn1CC(=O)NCc1cccc(OC)c1 [Example 25, 3-(4-chloro-3-fluorophenyl)-1-{[(3-methoxybenzyl)carbamoyl]methyl}-N-methyl-1H-pyrazole-5-carboxamide]

activation at 30 µM (full-length human PDE4D5; Protocol B): 38.2% | activation at 30 µM (full-length human PDE4B2; Protocol B): 17.1%
SMILES: CNC(=O)c1cc(-c2ccc(Cl)c(F)c2)nn1CC(=O)NCc1cccc(F)c1 [Example 26, 3-(4-chloro-3-fluorophenyl)-1-{[(3-fluorobenzyl)carbamoyl]methyl}-N-methyl-1H-pyrazole-5-carboxamide]

activation at 30 µM (full-length human PDE4D5; Protocol B): 75.1% | activation at 30 µM (full-length human PDE4B2; Protocol B): 7.6%
SMILES: CCOC(=O)c1cc(-c2ccc(Cl)cc2)nn1CC(=O)NCc1cccc(OC)c1 [Example 27, Ethyl 3-(4-chlorophenyl)-1-{[(3-methoxybenzyl)carbamoyl]methyl}-1H-pyrazole-5-carboxylate]

activation at 30 µM (full-length human PDE4D5; Protocol B): 31.9%
SMILES: CCc1nc(-c2ccc(Cl)c(F)c2)nn1CC(=O)NCc1cnc[nH]1 [Example 29, N-[(1H-imidazol-5-yl)methyl]-2-[3-(4-chloro-3-fluorophenyl)-5-ethyl-1H-1,2,4-triazol-1-yl]acetamide]

activation at 30 µM (full-length human PDE4D5; Protocol B): 87.6%
SMILES: CCc1nc(-c2ccc(Cl)c(F)c2)cn1CC(=O)NCc1cc(Cl)cc(Cl)c1 [Example 30, 2-[4-(4-chloro-3-fluorophenyl)-2-ethyl-1H-imidazol-1-yl]-N-(3,5-dichlorobenzyl) acetamide]
